≈ marks a conversion by molar mass, not a printed value.
Columns and labels:
[1] = test system: Staphylococcus aureus (ATCC 29213) and Micrococcus luteus; experiment: MIC: minimum antibiotic concentration causing no growth after 24 hours in Mueller-Hinton broth; type: cell-based; conditions: ATCC29213
Description: Staphylococcus aureus (ATCC 29213) and Micrococcus luteus were grown overnight in trypticase soy broth. Stock solutions of antibiotics were made according to […] & Washington (1991)(Balows, A. et al, (eds) American Society for Microbiology, Washington, 1991, pp. 1199-200). Antibiotics were diluted to the appropriate concentration in 1 ml of Mueller-Hinton broth (Gibco, Gaithersburg, Md.), and filtered though a 0.22 μm filter (Gelman Sciences, Ann Arbor, Mich.). MIC was defined as the minimum concentration of antibiotic that caused no growth after 24 hours in Mueller-Hinton broth.

[2] = test system: Staphylococcus aureus (ATCC 29213) and Micrococcus luteus; experiment: Membrane potential by ratio of red to green DiOC2(3) fluorescence, flow cytometry; type: cell-based
Description: (§1) Flow cytometric studies were performed using a laboratory-built dual laser instrument optimized for bacterial analysis. DiOC2(3) was excited at 488 nm by a beam from an argon ion laser; its green fluorescence was detected through a 530 nm, 20 nm bandwidth bandpass filter, and its red fluorescence was detected through a 610 nm, 19 nm bandpass filter. TO-PRO-3™ was excited at 633 nm by a beam from a helium-neon laser, and its fluorescence was detected through a 695 nm long pass filter. Light scattered at small angles to the 488 nm beam (forward scatter) was used as the trigger signal. Sheath flow rate was 10 ml/min; sample analysis rate was kept below 1,000 events/second. The signal pulse amplitudes were captured by high-precision peak detectors, and digitized using an Analogic HSDAS-16 16-bit data acquisition system in a Pentium-class personal computer. Software was used to perform logarithmic conversion on all of the parameters, which were represented on a 256-channel, 4-decade logarithmic scale.
(§2) Staphylococcus aureus (ATCC 29213) and Micrococcus luteus were grown overnight in trypticase soy broth. Stock solutions of antibiotics were made according to Anhalt & Washington (1991)(Balows, A. et al, (eds) American Society for Microbiology, Washington, 1991, pp. 1199-200). Antibiotics were diluted to the appropriate concentration in 1 ml of Mueller-Hinton broth (Gibco, Gaithersburg, Md.), and filtered though a 0.22 μm filter (Gelman Sciences, Ann Arbor, Mich.). MIC was defined as the minimum concentration of antibiotic that caused no growth after 24 hours in Mueller-Hinton broth.
(§3) Bacteria were added to an antibiotic solution at a concentration of 5.5×10^5/ml and incubated for the appropriate amount of time at 37 degrees C. while shaking. At each time point, a […] aliquot was removed and 30 μM DiOC2(3) and 100 nM TO-PRO-3™ were added simultaneously. The bacteria were allowed to incubate with the dye for 4 minutes prior to flow cytometric analysis. A second […] aliquot was treated identically, except that CCCP (final concentration 15 μM) was added to electrically depolarize the bacteria (i.e., to reduce membrane potential to zero).
(§4) Membrane potential was determined as a ratio of red to green DiOC2(3) fluorescence, providing a cell size-independent measure of MP. To measure membrane permeability, 100 nM TO-PRO-3™ was used in conjunction with the MP dye, DiOC2(3). […] Cells killed by heat exposure (100 degrees C. for 10 minutes) were used as positive controls for TO-PRO-3™ staining.

[3] = test system: Staphylococcus aureus (ATCC 29213) and Micrococcus luteus; experiment: Membrane permeability by TO-PRO-3 staining, flow cytometry; type: cell-based; conditions: for bacteria stained by TO-PRO-3: 4 hours exposure to 4 μg/ml
Description: as §1, §2, §3, §4
Effects of amoxicillin (MIC 2 μg/ml) were strongly concentration-dependent. […] Changes in permeability could be observed 45 minutes after antibiotic addition; however, the variance of the TO-PRO-3™ fluorescence distribution was quite large, due primarily to the large variance in size resulting from drug administration. The raw TO-PRO-3™ fluorescence data was corrected for size variation by calculating a quantity proportional to the logarithm of the ratio of TO-PRO-3™ fluorescence to green DiOC2(3) fluorescence, which is known to be proportional to size; the logarithm of green fluorescence was subtracted from the logarithm of TO-PRO-3™ fluorescence, and a constant was added to keep the values on scale. This allowed cells which had become permeable to TO-PRO-3™ to be visualized as a discrete population. Thus, when the size of the bacteria is altered by the permeabilizing agent, such as β-lactam antibiotics used at concentrations below MIC, correction for change in cell volume is important in making permeability measurements. […] Resumption of bacterial growth was coincident with this reversion to a TO-PRO-3™-impermeable state, which occurred after 3 hours in the presence of 0.25 μg/ml amoxicillin and after 4 hours in the presence of 0.5 μg/ml.

[4] = test system: gram negative organisms; conditions: concentrations up to 10 times MIC; cited from earlier work
[5] = even at high concentrations; cited from earlier work
[6] = test system: Staphylococcus aureus (ATCC 29213) and Micrococcus luteus; experiment: Bacterial growth and size (bead-referenced counts, forward scatter, microscopy); type: cell-based
Description: as §2
Bacteria were added to an antibiotic solution at a concentration of 5.5×10^5/ml and incubated for the appropriate amount of time at 37 degrees C. while shaking. […]
Bacteria were counted by adding […] sky blue beads (Spherotech, Libertyville, Ill.) to the cell suspension at a known concentration, determined by counting on a haemocytometer. […] Beads were diluted 1:100 into the bacterial sample and could be identified and counted based on their intense fluorescence (excitation at 633 nm; emission above 695 nm). The volume of sample analyzed in any given aliquot was calculated from the number of beads measured; dividing the number of bacteria by this volume yielded the concentration of bacteria in the aliquot.

Question: With `CC[C@H]1OC(=O)[C@H](C)[C@@H](O[C@H]2C[C@@](C)(OC)[C@@H](O)[C@H](C)O2)[C@H](C)[C@@H](O[C@@H]2O[C@H](C)C[C@H](N(C)C)[C@H]2O)[C@](C)(O)C[C@@H](C)C(=O)[C@H](C)[C@@H](O)[C@]1(C)O` [erythromycin] as the molecule, how does the MIC [1] read?
Answer: 4 µg/mL (≈ 5.45 µM)

Question: What about the “MP reduced to” value ([2]; 4 μg/ml, after 4 hours) of the same molecule?
Answer: −50 mV

Question: And the depolarization ([2]; dependence on concentration and time)?
Answer: concentration- and time-dependent depolarizations

Question: And the “bacteria stained by TO-PRO-3” value [3]?
Answer: 20%

Question: What about the permeability changes ([3]; concentrations below 1 μg/ml) of the same molecule?
Answer: did not cause any permeability changes

Question: With gentamicin as the molecule, how does the “changes in permeability to nucleic acid stains” value [4] read?
Answer: no

Question: Which “effect on MP” value ([2]; 5 μg/ml, by 1 hour, remained reduced at 105 minutes and 4 hours) does the source give for `[H]/N=C(/N)N[C@H]1[C@H](O)[C@@H](O)[C@H](O[C@@H]2O[C@@H](C)[C@](O)(C=O)[C@H]2O[C@@H]2O[C@@H](CO)[C@H](O)[C@@H](O)[C@@H]2NC)[C@@H](N/C(N)=N\[H])[C@@H]1O` [Streptomycin, streptomycin] here?
Answer: reduced MP

Question: What about the “effect on MP after erythromycin preincubation” value ([2]; organisms preincubated with 1 mg/ml erythromycin for 30 minutes) of the same molecule?
Answer: abolished

Question: What about the permeability changes ([3]; 5 μg/ml, 1 hour to 4 hours) of the same molecule?
Answer: No permeability changes were seen

Question: For `O=C(N[C@H](CO)[C@H](O)c1ccc([N+](=O)[O-])cc1)C(Cl)Cl` [chloramphenicol], which “changes in permeability (Mortimer et al.)” value [5] is on record?
Answer: does not cause changes in permeability

Question: What about the bacterial growth ([6]; 4 μg/ml) of the same molecule?
Answer: completely prevented bacterial growth

Question: And the “changes in MP” value ([2]; 4 μg/ml, after 4 hours)?
Answer: no changes

Question: And the changes in permeability ([3]; 4 μg/ml, after 4 hours)?
Answer: no changes

Question: Which MIC [1] does the source give for `CN(C)[C@@H]1C(O)=C(C(N)=O)C(=O)[C@@]2(O)C(O)=C3C(=O)c4c(O)cccc4[C@@](C)(O)[C@H]3C[C@@H]12` [Tetracycline, tetracycline] here?
Answer: 0.25 µg/mL (≈ 0.563 µM)

Question: What about the “MP reduced to” value ([2]; 4 μg/ml, after 4 hours) of the same molecule?
Answer: −50 mV

Question: What about the “bacteria stained by TO-PRO-3” value [3] of the same molecule?
Answer: 50%

Question: What does the source list for `CC1(C)S[C@@H]2[C@H](NC(=O)[C@H](N)c3ccc(O)cc3)C(=O)N2[C@H]1C(=O)O` [amoxicillin]?
Answer: bacterial size ([6]; concentrations below MIC, microscopy and forward scatter): drastically increased in size; MIC [1]: 2 µg/mL (≈ 5.47 µM); dominant characteristic of treated cells (MP) ([2]; concentrations above MIC): loss of MP; time to reversion to TO-PRO-3-impermeable state, coincident with resumption of bacterial growth ([3]; 0.25 μg/ml): 3 h; time to reversion to TO-PRO-3-impermeable state, coincident with resumption of bacterial growth ([3]; 0.5 μg/ml): 4 h; percentage of cells permeable to TO-PRO-3, 4 μg/ml compared with 1 μg/ml ([3]; 4 μg/ml versus 1 μg/ml): lower percentages of cells permeable to TO-PRO-3™; membrane integrity after four hours ([3]; 0.25 or 0.5 μg/ml, after four hours): the majority of the cells regained their membrane integrity; TO-PRO-3 permeable population and its MP ([3]; after 2 hours at either 0.25 or 0.5 μg/ml): a population that was permeable to TO-PRO-3™, but that maintained a normal MP, was detected; time after antibiotic addition at which changes in permeability could be observed ([3]; concentrations below MIC): 45 min

Reference: patent US6562785B1, “Method for overcoming bacterial antibiotic resistance” (priority 1999, dated 2003)
